System: mixed-species bacterial culture (Actinomyces viscosus, Lactobacillus casei, Fusobacterium nucleatum subsp. polymorphum, Streptococcus oralis and Veillonella …)
Assay: Short interval kill (SIK) test
Format: cell-based
Conditions: thirty seconds treatment, Live/Dead staining
Protocol: The anti-microbial efficacy of mouthwash formulations according to the present invention was tested using short interval kill (SIK) test. The formulations tested were the same as those used in Example 2. 500 μl of a mixed-species bacterial culture (Actinomyces viscosus (ATCC#43146), Lactobacillus casei (ATCC#334), Fusobacterium nucleatum subsp. polymorphum (ATCC#10953), Streptococcus oralis (ATCC#35037) and Veillonella parvula (ATCC#17745)) were transferred to sterile 2 ml microcentrifuge tubes. The samples were centrifuged for 10 min at ˜21 000×g to pellet bacterial cells. […] The re-suspended samples were subsequently treated with 100 μl of mouthwash or control solution. Bacterial killing was stopped after thirty seconds by adding 1.3 ml of D/E Neutralization Buffer. Samples were centrifuged for 10 min at 10,000 rpm to pellet bacterial cells. […] Finally, the pelleted cells were suspended in 150 μl of sterile PBS and aliquots were transferred to each of three wells of a sterile 96-well plate. To quantify the viable bacteria left after treatment, the bacterial suspensions were stained using Invitrogen BacLight Live/Dead viability kit. This kit consists of two fluorescent dyes, propidium iodine and SYTO9. The first dye, propidium iodide, is a red fluorescent DNA stain that can only penetrate bacterial cells whose membranes have been permeabilized (i.e. those cells that are “dead”). The second dye, SYTO9, is a green fluorescent DNA dye that is able to stain all bacterial cells. The bacterial suspensions were stained by adding 50 μl of a solution containing the two dyes in equal amounts to each well of the 96-well plate. Plates were then incubated for 15 min at room temperature, protected from light. The fluorescence of the samples were measured at an excitation wavelength of 485 nm and emission wavelengths of 535 nm and 635 nm. The results are illustrated in Table 8, and are provided as the percentage of cells that are viable relative to a control treatment with PBS alone.

CCO [Ethanol 100%, Ethanol]
percentage of cells that are viable relative to PBS control, Run 1 (Run 1): 44%
percentage of cells that are viable relative to PBS control, Run 2 (Run 2): 47%
percentage of cells that are viable relative to PBS control, Run 3 (Run 3): 48%
percentage of cells that are viable relative to PBS control, Average (average of 3 runs): 46%
